Results published in patent US20250186405A1, “Compound For Use In Treating Narcolepsy” (Alkermes, Inc., priority 2023, published 2025).

System: subjects with idiopathic hypersomnia (IH)
Assay: Part 6 POC IH: treatment-emergent adverse events, single doses, crossover
[1] = Total (any Compound A dose), N = 8

Experimental: Part 6 consisted of a 4-way, 4-period crossover study design in approximately 8 subjects (2 subjects per sequence; minimum of 4 subjects with 1 subject per sequence). […] Treatments were administered under fasted state.
Subjects were randomized to 1 of 4 sequences. […] No food was given for at least 3 hours after dose administration (i.e., fast can be broken after the 3-hour PK time point is collected). Water was allowed ad libitum except for 1 hour before and 1 hour after study drug administration. Safety assessments including AEs, safety ECGs, vital signs, and clinical laboratory tests were conducted, and plasma PK samples were collected.
Adverse events (AEs) and serious adverse events (SAEs) were monitored continuously until the completion of the study.
Eight subjects with IH were dosed in Part 6 (POC in IH) in a randomized 4-sequence 4-period cross-over design.

Question: What does the source list for `CS(=O)(=O)N[C@H]1CCCN2C(=O)COc3ccccc3C3CCC(CC3)OCC12` (stereo partly drawn) [Compound A, N-[(4S,4aR,7α,10α)-1,2,3,4,4a,5,7,8,9,10,16,17-dodecahydro-17-oxo-7,10-ethanopyrido[1,2-d][1,7,4]benzodioxaazacyclotridecin-4-yl]methanesulfonamide]?
Answer: Any SAEs (25 mg single dose, N = 8): 0 n (%); Any TEAE (25 mg single dose, N = 8): 7 (87.5) n (%); Death (25 mg single dose, N = 8): 0 n (%); Drug Related TEAE by Preferred Term: Cold sweat (25 mg single dose, N = 8): 1 (12.5) n (%); Drug Related TEAE by Preferred Term: Dizziness (25 mg single dose, N = 8): 2 (25.0) n (%); Drug Related TEAE by Preferred Term: Dysuria (25 mg single dose, N = 8): 1 (12.5) n (%); Drug Related TEAE by Preferred Term: Feeling jittery (25 mg single dose, N = 8): 1 (12.5) n (%); Drug Related TEAE by Preferred Term: Insomnia (25 mg single dose, N = 8): 2 (25.0) n (%); Drug Related TEAE by Preferred Term: Micturition urgency (25 mg single dose, N = 8): 1 (12.5) n (%); Drug Related TEAE by Preferred Term: Middle insomnia (25 mg single dose, N = 8): 1 (12.5) n (%); Drug Related TEAE by Preferred Term: Palpitations (25 mg single dose, N = 8): 1 (12.5) n (%); Drug Related TEAE by Preferred Term: Pollakiuria (25 mg single dose, N = 8): 4 (50.0) n (%); Drug Related TEAE by Preferred Term: Supraventricular extrasystoles (25 mg single dose, N = 8): 1 (12.5) n (%); Drug Related TEAE by Preferred Term: Tachycardia (25 mg single dose, N = 8): 1 (12.5) n (%); Drug Related TEAE by Preferred Term: Visual impairment (25 mg single dose, N = 8): 1 (12.5) n (%); Subjects with at least one TEAE (25 mg single dose, N = 8): 7 (87.5) n (%); Subjects with at least one treatment-related TEAE (25 mg single dose, N = 8): 7 (87.5) n (%); TEAE by Highest Relationship: Not Related (25 mg single dose, N = 8): 0 n (%); TEAE by Highest Relationship: Related (25 mg single dose, N = 8): 7 (87.5) n (%); TEAE by Highest Severity: Mild (25 mg single dose, N = 8): 6 (75.0) n (%); TEAE by Highest Severity: Moderate (25 mg single dose, N = 8): 1 (12.5) n (%); TEAE by Highest Severity: Severe (25 mg single dose, N = 8): 0 n (%); TEAE by Preferred Term: Blood creatine phosphokinase increased (25 mg single dose, N = 8): 0 n (%); TEAE by Preferred Term: Blood creatinine increased (25 mg single dose, N = 8): 0 n (%); TEAE by Preferred Term: Cold sweat (25 mg single dose, N = 8): 1 (12.5) n (%); TEAE by Preferred Term: Dermatitis contact (25 mg single dose, N = 8): 0 n (%); TEAE by Preferred Term: Dizziness (25 mg single dose, N = 8): 2 (25.0) n (%); TEAE by Preferred Term: Dysuria (25 mg single dose, N = 8): 1 (12.5) n (%); TEAE by Preferred Term: Epistaxis (25 mg single dose, N = 8): 1 (12.5) n (%); TEAE by Preferred Term: Feeling jittery (25 mg single dose, N = 8): 1 (12.5) n (%); TEAE by Preferred Term: Headache (25 mg single dose, N = 8): 1 (12.5) n (%); TEAE by Preferred Term: Insomnia (25 mg single dose, N = 8): 2 (25.0) n (%); TEAE by Preferred Term: Micturition urgency (25 mg single dose, N = 8): 1 (12.5) n (%); TEAE by Preferred Term: Middle insomnia (25 mg single dose, N = 8): 1 (12.5) n (%); TEAE by Preferred Term: Nausea (25 mg single dose, N = 8): 0 n (%); TEAE by Preferred Term: Neck pain (25 mg single dose, N = 8): 0 n (%); TEAE by Preferred Term: Palpitations (25 mg single dose, N = 8): 1 (12.5) n (%); TEAE by Preferred Term: Phlebitis (25 mg single dose, N = 8): 0 n (%); TEAE by Preferred Term: Pollakiuria (25 mg single dose, N = 8): 4 (50.0) n (%); TEAE by Preferred Term: Presyncope (25 mg single dose, N = 8): 0 n (%); TEAE by Preferred Term: Skin irritation (25 mg single dose, N = 8): 0 n (%); TEAE by Preferred Term: Steatorrhoea (25 mg single dose, N = 8): 0 n (%); TEAE by Preferred Term: Supraventricular extrasystoles (25 mg single dose, N = 8): 1 (12.5) n (%); TEAE by Preferred Term: Tachycardia (25 mg single dose, N = 8): 1 (12.5) n (%); TEAE by Preferred Term: Urinary tract infection (25 mg single dose, N = 8): 0 n (%); TEAE by Preferred Term: Vessel puncture site bruise (25 mg single dose, N = 8): 0 n (%); TEAE by Preferred Term: Vessel puncture site pain (25 mg single dose, N = 8): 1 (12.5) n (%); TEAE by Preferred Term: Visual impairment (25 mg single dose, N = 8): 1 (12.5) n (%); TEAE by Preferred Term: Vomiting (25 mg single dose, N = 8): 0 n (%); Tolerability (IH, 5, 12 and 25 mg): well tolerated; Subjects with at least one TEAE (IH, N = 8, all periods): 100%; AE Leading to Study Drug Discontinuation [1]: 0 n (%); Any SAEs [1]: 0 n (%); Any TEAE [1]: 8 n (%); Death [1]: 0 n (%); Drug Related TEAE by Preferred Term: Cold sweat [1]: 1 (12.5) n (%); Drug Related TEAE by Preferred Term: Dizziness [1]: 2 (25.0) n (%); Drug Related TEAE by Preferred Term: Dysuria [1]: 1 (12.5) n (%); Drug Related TEAE by Preferred Term: Feeling jittery [1]: 1 (12.5) n (%); Drug Related TEAE by Preferred Term: Insomnia [1]: 2 (25.0) n (%); Drug Related TEAE by Preferred Term: Micturition urgency [1]: 1 (12.5) n (%); Drug Related TEAE by Preferred Term: Middle insomnia [1]: 2 (25.0) n (%); Drug Related TEAE by Preferred Term: Palpitations [1]: 1 (12.5) n (%); Drug Related TEAE by Preferred Term: Pollakiuria [1]: 5 (62.5) n (%); Drug Related TEAE by Preferred Term: Supraventricular extrasystoles [1]: 1 (12.5) n (%); Drug Related TEAE by Preferred Term: Tachycardia [1]: 1 (12.5) n (%); Drug Related TEAE by Preferred Term: Visual impairment [1]: 1 (12.5) n (%); Subjects with at least one TEAE [1]: 8 n (%); Subjects with at least one treatment-related TEAE [1]: 8 (100) n (%); TEAE by Highest Relationship: Not Related [1]: 0 n (%); TEAE by Highest Relationship: Related [1]: 8 n (%); TEAE by Highest Severity: Mild [1]: 7 n (%); TEAE by Highest Severity: Moderate [1]: 1 n (%); TEAE by Highest Severity: Severe [1]: 0 n (%); TEAE by Preferred Term: Blood creatine phosphokinase increased [1]: 1 n (%); TEAE by Preferred Term: Blood creatinine increased [1]: 1 n (%); TEAE by Preferred Term: Cold sweat [1]: 1 n (%); TEAE by Preferred Term: Dermatitis contact [1]: 0 n (%); TEAE by Preferred Term: Dizziness [1]: 4 n (%); TEAE by Preferred Term: Dysuria [1]: 1 n (%); TEAE by Preferred Term: Epistaxis [1]: 1 n (%); TEAE by Preferred Term: Feeling jittery [1]: 1 n (%); TEAE by Preferred Term: Headache [1]: 3 n (%); TEAE by Preferred Term: Insomnia [1]: 2 n (%); TEAE by Preferred Term: Micturition urgency [1]: 1 n (%); TEAE by Preferred Term: Middle insomnia [1]: 2 n (%); TEAE by Preferred Term: Nausea [1]: 1 n (%); TEAE by Preferred Term: Neck pain [1]: 1 n (%); TEAE by Preferred Term: Palpitations [1]: 1 n (%); TEAE by Preferred Term: Phlebitis [1]: 1 n (%); TEAE by Preferred Term: Pollakiuria [1]: 5 n (%); TEAE by Preferred Term: Presyncope [1]: 1 n (%); TEAE by Preferred Term: Skin irritation [1]: 1 n (%); TEAE by Preferred Term: Steatorrhoea [1]: 1 n (%); TEAE by Preferred Term: Supraventricular extrasystoles [1]: 1 n (%); TEAE by Preferred Term: Tachycardia [1]: 1 n (%); TEAE by Preferred Term: Urinary tract infection [1]: 1 n (%); TEAE by Preferred Term: Vessel puncture site bruise [1]: 2 n (%); TEAE by Preferred Term: Vessel puncture site pain [1]: 1 n (%); TEAE by Preferred Term: Visual impairment [1]: 1 n (%); TEAE by Preferred Term: Vomiting [1]: 0 n (%)
